SMILES strings stand for the structures. Several values for one entry are separate records, joined by “and”; a condition that tells them apart may be missing. Equal values may be shown once. Read-outs that look alike come from different tables or passages of the source.

Ki, kcat and Km data for 9 compounds are collected here from paper PMC5843355, “Evaluation of the Trypanosoma brucei 6-oxopurine salvage pathway as a potential target for drug discovery” (PLoS Neglected Tropical Diseases, 2018).

Assay [1] addresses T1, HGPRT-II (Trypanosoma brucei brucei, UniProt Q38C93). Briefly: Inhibition studies, Ki for recombinant HGPRT-II (spectrophotometric assay). Type of assay: biochemical. On the procedure:
(§1) The concentration of enzyme in the assay (varied from 75–200 μg/ml for the two enzymes) and the concentration of PRib-PP was kept at 1 mM. The reaction was carried out using a 1.0 cm path length with a UV Visible spectrometer 1601 (Shimadzu) in the reaction buffer (0.1 M Tris, pH 8.4; 0.11 M MgCl2; at 25°C).
(§2) The concentrations of inhibitors in the assay ranged from 1 nM to 100 μM, depending on the steady-state kinetics of the respective enzyme at that concentration of inhibitor. The reaction was preceded by 1 minute incubation of the respective enzyme with the given inhibitor. The Ki values were calculated using non-linear regression in GraphPad Prism5.

Assay [2] has as its target T2, HGXPRT (Trypanosoma brucei brucei, UniProt Q38CA1). The experiment in a line: Inhibition studies, Ki for recombinant HGXPRT (spectrophotometric assay). Type of assay: biochemical. Particulars: 0.1 M Tris pH 8.4, 0.11 M MgCl2, 25°C, parent ANP. On the procedure: as §1, §2
Assay [3] has as its target T3, HGPRT-I (Trypanosoma brucei brucei, UniProt Q07010).
T3 construct: 6x His-tag (N); AcTEV cleavage site (N); made in house; host or cells: E. coli One Shot BL21(DE3)
The experiment in a line: Inhibition studies, Ki for recombinant HGPRT-I (spectrophotometric assay). Particulars: 0.1 M Tris pH 8.4, 0.11 M MgCl2, 25°C, parent ANP. In kind it is biochemical. The protocol:
as §1, §2

Assay [4] concerns the target T1, HGPRT-II. Briefly: Steady-state kinetic constants of 6-oxopurine bases for HGPRT-II. Type of assay: biochemical. The note with it: PRib-PP 1 mM, pH 8.4, 25°C. The protocol:
as §1

Assay [5] deals with T2, HGXPRT. The experiment in a line: Steady-state kinetic constants of 6-oxopurine bases for HGXPRT. The note with it: PRib-PP 1 mM, pH 8.4, 25°C. On the procedure: as §1
Assay [6] has as its target T3, HGPRT-I. Briefly: Steady-state kinetic constants of 6-oxopurine bases for HGPRT-I. In kind it is biochemical. Particulars: PRib-PP 1 mM, pH 8.4, 25°C. The protocol: as §1
[7] abbreviates: 0.1 M Tris pH 8.4, 0.11 M MgCl2, 25°C, parent ANP.

T3 sequence (Q07010 2-210 limits assumed): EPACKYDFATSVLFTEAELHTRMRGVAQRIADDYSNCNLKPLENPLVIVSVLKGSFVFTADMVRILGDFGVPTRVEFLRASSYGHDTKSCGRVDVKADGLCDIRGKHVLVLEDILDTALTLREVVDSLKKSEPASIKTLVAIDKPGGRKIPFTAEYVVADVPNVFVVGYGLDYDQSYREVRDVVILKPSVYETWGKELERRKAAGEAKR
T1 sequence (Q38C93 entry or part of it): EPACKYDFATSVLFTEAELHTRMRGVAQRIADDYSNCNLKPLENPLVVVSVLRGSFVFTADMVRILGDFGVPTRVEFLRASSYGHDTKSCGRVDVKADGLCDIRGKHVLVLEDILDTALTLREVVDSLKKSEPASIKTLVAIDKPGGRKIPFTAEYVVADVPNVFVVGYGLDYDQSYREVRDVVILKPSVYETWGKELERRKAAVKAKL
T2 sequence (Q38CA1 entry or part of it): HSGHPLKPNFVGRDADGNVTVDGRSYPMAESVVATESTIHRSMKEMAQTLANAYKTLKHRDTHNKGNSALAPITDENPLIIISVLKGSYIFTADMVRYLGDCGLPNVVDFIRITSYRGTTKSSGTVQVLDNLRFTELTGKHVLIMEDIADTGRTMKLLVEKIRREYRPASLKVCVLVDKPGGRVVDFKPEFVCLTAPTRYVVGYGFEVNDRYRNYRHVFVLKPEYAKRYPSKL

As a reminder, the Ki is a measure of affinity in units of concentration, obtained from inhibition or displacement. Turning to `N#CCCN(CCn1cnc2c(=O)[nH]c(N)nc21)CCP(=O)(O)O` [compound 1], the Ki at HGPRT-II [1] (setting [7]) stood at 14.2 ± 0.61 µM; on HGXPRT [2] (read-out: HGXPRT Ki) it was 19.9 ± 1.75 µM; at HGPRT-I [3] (read-out: HGPRT-I Ki) it was 13.5 ± 0.83 µM.
The like results for `Nc1nc2c(ncn2CCN(CCOCP(=O)(O)O)CCP(=O)(O)O)c(=O)[nH]1` [compound 2] were, in that order, 0.25 ± 0.02 µM, 6.54 µM and 0.11 µM.
For `Nc1nc2c(ncn2CC(COCCP(=O)(O)O)OCCP(=O)(O)O)c(=O)[nH]1` (stereo not drawn) [compound 7] the same measures were 1.88 ± 0.17 µM, 0.77 ± 0.06 µM and 0.89 ± 0.07 µM.
As to `Nc1nc2c(ncn2CC(COCP(=O)(O)O)COCP(=O)(O)O)c(=O)[nH]1` [compound 6], the Ki at HGPRT-II [1] was 0.2 µM and < 1 µM; on HGXPRT [2] (HGXPRT Ki) it was less than 1 µM; on HGPRT-I [3] (HGPRT-I Ki), less than 1 µM.
On to `O=c1[nH]cnc2c1ncn2CCN(CCOCP(=O)(O)O)CCP(=O)(O)O` [compound 3], for which the Ki on HGPRT-II [1] (setting [7]) is 0.06 µM and < 1 µM; at HGXPRT [2] (read-out: HGXPRT Ki) it was 0.38 µM and < 1 µM; at HGPRT-I [3] (read-out: HGPRT-I Ki), 0.12 µM and < 1 µM.
For orientation: kcat means the maximal rate divided by the concentration of active sites. Take `Nc1nc2nc[nH]c2c(=O)[nH]1` [Guanine]: the results for the kcat on HGPRT-II [4] and on HGXPRT [5] were 0.05 s⁻¹ and 1.36 s⁻¹, respectively.
`Nc1nc2c(ncn2CCN(CCN(CCP(=O)(O)O)CCP(=O)(O)O)CCP(=O)(O)O)c(=O)[nH]1` [compound 4]: the figures for the Ki at HGPRT-II [1] (setting [7]), on HGXPRT [2] (HGXPRT Ki) and at HGPRT-I [3] (read-out: HGPRT-I Ki) were 0.31 ± 0.06 µM, 1.86 ± 0.29 µM and 0.29 ± 0.02 µM, respectively.
In the case of `O=c1[nH]c(=O)c2nc[nH]c2[nH]1` [Xanthine], the Km result is reported as “No activity detected” on HGPRT-II [4], “No activity detected” at HGPRT-I [6] and “no affinity” on HGPRT-I [6] (listed as xanthine). Moreover, the kcat result at HGPRT-II [4] is “No activity detected”; on HGPRT-II [4] (listed as xanthine), “no activity”; at HGPRT-I [6], “No activity detected”; at HGPRT-I [6] (listed as xanthine), “no activity”.
With `O=c1[nH]cnc2c1ncn2CCN(CCN(CCP(=O)(O)O)CCP(=O)(O)O)CCP(=O)(O)O` [compound 5], the Ki was found to be 7.02 ± 1.62 µM on HGPRT-II [1] (setting [7]), 10.5 ± 1.32 µM on HGXPRT [2] (read-out: HGXPRT Ki) and 2.47 ± 0.44 µM at HGPRT-I [3] (read-out: HGPRT-I Ki).
